Experimental data published in a melting point compilation (Tetko et al.; mined from patent text by program, amines drawn as free bases though some values may be those of a salt).

Structure (SMILES)	melting point [°C]
Cc1ncc([N+](=O)[O-])n1CCN=[N+]=[N-]	51 to 51.5
CCOC(=O)c1cc2c(OC=O)c(OC[C@H]3CO3)ccc2[nH]1	123 to 125
CCCCCC(CNC(=O)Nc1cc(C(N)=O)ccc1C(C)(C)C)c1ccc(OC)cc1OC (stereo not given)	223 to 224
CS(=O)(=O)c1c(C#N)nn(-c2c(Cl)cc(C(F)(F)F)cc2Cl)c1-n1cccc1	200 to 202
CC(C)CC(=O)OCC(COC(=O)CC(C)C)OCn1cnc2c(=O)[nH]c(N)nc21	215 to 217
CN1Cc2cscc2Nc2cc(Cl)c(Cl)cc21	92 to 93
C=CCn1nc(C)c(C(=O)c2ccc(Cl)cc2Cl)c1O	161 to 163
Cc1c(Br)nc(Nc2ccc(C#N)cc2)c(=O)n1C	254 to 255
CC1CC2(CC3CCC4C5CCC(=O)C5(C)CCC4C13C)OCCO2 (stereo not given)	154
C#CCNc1ccc([N+](=O)[O-])cc1	150 to 153
O=C(NCCO[N+](=O)[O-])c1csc(C(F)(F)F)n1	81 to 82
CNC(=O)Nc1ccc2c(c1)C(C)(N)c1c-2[nH]c(=O)c2nccn12 (stereo not given)	200
O=C1OC2(CCN(CCOC(c3ccccc3)c3ccccc3)CC2)c2ccccc21	99 to 100
CC(=O)CC(=O)c1ccc(C)nc1	57 to 58
O=[N+]([O-])c1cnn(-c2c(Cl)cc(C(F)(F)F)cc2Cl)n1	105
C=C(C)C(=O)NCCCCCCCCCCCC(=O)O	70.8 to 72.4
Nc1c(F)c(N2CCC(=NO)CC2)c(F)c2c1c(=O)c(C(=O)O)cn2C1CC1	298 to 300
CCC1C(C)=NN=C(c2ccc(OC)c(OC)c2)c2cc(C)ccc21 (stereo not given)	156 to 158
CC(C)(C)OC(=O)NCCNC(=O)c1ccc([N+](=O)[O-])cn1	141 to 142
O=C(CNC(=O)c1ccc(C(=O)C=C(c2cc(Cl)cc(C(F)(F)F)c2)C(F)(F)F)c2ccccc12)NCC(F)(F)F	174 to 177
CN1C(=O)N(c2ccc(Cl)cc2)S[N+]1(C)[O-] (stereo not given)	83 to 85
COC(=O)CCC(=O)c1ccc(CCCCCCNC(C)=O)cc1	87 to 89
CC(C)Sc1ccc(N)c(C#N)c1	67 to 68
CCC(NS(C)(=O)=O)c1ccc(Cl)c2nc3n(c12)CCCN3c1ccc(Cl)cc1Cl (stereo not given)	125 to 126
COc1cccc2c1nc(C(F)F)n2-c1nc(Nc2ccc(Cl)nc2)nc(N2CCOCC2)n1	260 to 262
Cc1nc(Sc2ncccc2CC(=O)O)sc1CC(=O)O	172 to 174
COC(=CCl)C1(O)CCC2C3CCC4=CC(=O)CCC4(C)C3=CCC21C (stereo not given)	197 to 199
CCCCC(=NNC(=O)OCC)c1ccncc1	102
N#CCOC(=O)c1cccnc1SCC#N	140 to 143
C[C@@H](O)CN1CC(c2cccc(C(F)(F)F)c2)C1	81 to 82

Other lines, results leading:

melting point [°C]	Structure (SMILES)
192 to 194	O=CC(CC(=O)c1ccc(F)cc1)c1ccccc1 (stereo not given)
218 to 219	C[C@@H](NC(=O)c1ccc(-c2ccc(Cl)cc2)o1)[C@](O)(Cn1cncn1)c1ccc(F)cc1F
280 to 283	NC(=O)Cn1c(-c2ccc(Cl)cc2)nc2ncccc21
87 to 88.5	COC(=O)CCCc1cccc(NC(=O)[C@@H](CSC(C)=O)Cc2ccccc2)c1
48 to 50	COc1ccccc1-n1cnc2cc(N)ccc21
270	CC(=O)Nc1ccccc1NC(=O)CN1C(=O)c2ccccc2C1=O
67 to 76	COc1ccc(/C=C/C(=O)N2CCN(C(=O)c3cc(C(F)(F)F)cc(C(F)(F)F)c3)[C@H](Cc3ccc(C)c(C)c3)C2)cc1
99 to 101	COc1ccc(C(=O)C(O)c2ccccc2)cc1 (stereo not given)
185	Cc1c(C(=O)Nc2ccc(N3CCN(CCN(C)C)CC3)c(C#N)c2)cnn1-c1ccc(F)cc1
69 to 70	CCc1ccc(OCc2cccc(NC(=O)CCC(=O)OC)c2)cc1OC
123 to 125	Cc1cccc(OS(=O)(=O)c2ccc(N3CCN(C)C3=O)cc2)c1
122 to 125	COc1ccc(N2CCN(c3c(C)c(C)c4c(c3C)C(O)(c3cccc(C)c3)C(C)(C)O4)CC2)cc1 (stereo not given)
189 to 190	N#Cc1cc(-c2nc3cncnc3s2)ccc1Sc1cccc(F)c1
78 to 80	COc1ccc(N2CCN(CCC3OCCc4cc([Si](C)(C)C)ccc43)CC2)cc1 (stereo not given)
189 to 190	NS(=O)(=O)c1cc(C(=O)NNc2ccccc2)ccc1Cl
116 to 118	NNc1nccc(-c2ccccc2)n1
58 to 61	CC1(C)CC(OC(=O)CCCCCCCCC(=O)OC2CC(C)(C)N(OCc3ccccc3)C(C)(C)C2)CC(C)(C)N1OCc1ccccc1
242 to 245	COc1ccc(-c2nc(C(O)C(F)(F)F)[nH]c2-c2ccc(OC)cc2)cc1 (stereo not given)
121 to 123	COC(=O)CCCc1cc2cc(Cl)ccc2n1S(=O)(=O)c1ccc2ncsc2c1
125 to 126	Cc1cccc(NC(=O)c2ccccc2)c1Cl

melting point [°C]	Structure (SMILES)
183 to 184	COCCCNc1cccc(Oc2ccc(-c3cn(C4CCOC4)c4ncnc(N)c34)cc2)c1C#N (stereo not given)
62	Cc1ccc(-c2[nH]nc(COCCCO[N+](=O)[O-])c2-c2ccc(S(N)(=O)=O)cc2)cc1
132 to 134	O=C1Nc2cccc(-c3cccc(NS(=O)(=O)c4cc(S(=O)(=O)c5ccccc5)cs4)c3)c2/C1=C/c1ccc[nH]1
150 to 151	Cc1oc(-c2ccccc2)nc1CCC(O)c1ccc(CCCC2OC(=O)NC2=O)cc1 (stereo not given)
239 to 241	Nc1nc2ccccc2c2sc(C=Cc3ccccc3)nc12
100	CN1CC(COC2c3ccccc3CCn3cc(I)nc32)C1 (stereo not given)
178 to 179	CC(C)(C)OC(=O)N1CC(CCl)c2c1cc(OCc1ccccc1)c1ncccc21 (stereo not given)
66 to 67	CC(=O)[C@H]1CC[C@H](CNC(=O)OCc2ccccc2)CC1
146 to 150	COc1ccc(CS(=O)(=O)/C(=C/c2ccc(Br)cc2)C(=O)c2ccc(Br)cc2)cc1
228	FC(F)(F)c1nnc2c3cc(Cl)ccc3ccn12
74 to 75	O=C(c1ccc(Cl)cc1)C(CC1OCCO1)Sc1ccccc1 (stereo not given)
242	Cc1c(NC(=O)c2ccc(NC(=O)c3ccccc3)cc2)ccc2cc(CN3CCCC3)cnc12
85	Cc1c(C(O)c2ccccc2)nc2n1CCc1ccccc1C2OC1CCN(C)CC1 (stereo not given)
219 to 223	CCCCc1nc2c(N)nc3ccc(O)cc3c2n1CCCCNS(=O)(=O)c1ccccc1
109 to 110	CCOC(=O)C1=Cc2cc(Cl)c(Oc3ccc(CC)cc3)cc2OC1C(F)(F)F (stereo not given)
200 to 204	COc1ccc(CSc2ccc([N+](=O)[O-])cc2C(=O)O)cc1
83 to 85	c1ccc(Oc2ccc(OCCOn3cccn3)cc2)cc1
239	O=C1NCC(=O)c2c(ncn2C2OC(COC(=O)c3ccccc3)C(OC(=O)c3ccccc3)C2OC(=O)c2ccccc2)N1 (stereo not given)
250 to 251	CC(C)(C)c1ccc(-c2csc(-c3cccc(C(=O)O)c3)n2)cc1
171 to 172	O=C(Nc1cccnc1)N1CCN(c2cc(-c3ccc(F)cc3F)ncn2)CC1
